Measured values published in publication PMC12091851, “Replacing a Cereblon Ligand by a DDB1 and CUL4 Associated Factor 11 (DCAF11) Recruiter Converts a Selective Histone Deacetylase 6 PROTAC into a Pan‐Degrader” (Chemmedchem, 2025).

Columns and labels:
[1] = system: MM.1S cells; assay: CellTiter-Glo cell viability assay; assay type: cell-based, human; settings: for EC50: Homo sapiens, MM1.S, 72 h, n.e.: no effect (≤25 % effect up to 50 μM), read-out: EC50 MM.1S; for antiproliferative activity reduced compared to vorinostat by a factor: MM.1S cells
Method: For this purpose, the dilution series were prepared in 200-fold concentration in DMSO and further diluted to 10-fold concentration in medium. The final DMSO concentration was 0.5%. The toxicity of compounds was determined after 72 h using the CellTiter-Glo 2.0 Cell Viability Assay (Promega, Madison, WI, USA, #G9242) according to the manufacturer´s protocol. Subsequently, the luminescence was measured using a Tecan Spark (Tecan Group AG, Maennedorf, Swiss) and the half maximal effective concentration (EC50) was determined by plotting dose response curves and nonlinear regression with GraphPad Prism (GraphPad Software, San Diego, CA, USA). […] Cellular HDAC Inhibition Assay […] with minor changes. […] The DMSO-stock solutions were used to perform a serial dilution in DMSO. […] 10 µL of the substrate solution was added and incubated for 3 h under cell culture conditions. […] S8

[2] = system: U-87MG cells; assay: MTT cell viability assay; assay type: cell-based; settings: Homo sapiens, 72 h, n.e.: no effect (≤25 % effect up to 50 μM)
Method: (§1) GraphPad Prism (GraphPad Software).
(§2) 2.8. MTT Cell Viability Assay
(§3) U-87MG cells (3 × 10^3 cells/well) or MDA-MB-231 cells (5 × 10^3 cells/well) were seeded in 96-well flat-bottomed plates. After 24 h the cells were incubated with the stock solutions of the respective compounds dissolved in DMSO (highest DMSO concentration, 0.5%) to reach the final concentrations as indicated. Controls received DPBS or DMSO. Following a 71 h incubation period 20 µl of a freshly prepared 5 mg/ml MTT (3-(4,5-dimethylthiazol-2-yl)-2,5-diphenyltetrazolium bromide, AppliChem GmbH, Darmstadt, Germany) solution were added into each well. The supernatant was discarded after 1 h incubation at 37 °C and the precipitated formazan was dissolved in 200 µl DMSO/well. Absorption was measured at 570 nm with background subtraction at 690 nm using a photometric microplate reader (Thermo Scientific Multiskan EX, Thermo Fisher Scientific). Data was further subtracted by the DMSO control and normalized on DPBS. The half-maximal effective concentration (EC50) was determined by plotting dose response curves and nonlinear regression with GraphPad Prism (GraphPad Software). […]

[3] = target: HDAC1 (Homo sapiens, UniProt Q13547); assay: Simple Western immunoassay, HDAC1 levels in MM.1S cell lysates; assay type: cell-based; set-up: endogenous in cells; host or cells: MM.1S; settings: MM.1S cells, 10 μM; for reduction of HDAC1 levels: 24 h
Chain of HDAC1 (Q13547 whole entry): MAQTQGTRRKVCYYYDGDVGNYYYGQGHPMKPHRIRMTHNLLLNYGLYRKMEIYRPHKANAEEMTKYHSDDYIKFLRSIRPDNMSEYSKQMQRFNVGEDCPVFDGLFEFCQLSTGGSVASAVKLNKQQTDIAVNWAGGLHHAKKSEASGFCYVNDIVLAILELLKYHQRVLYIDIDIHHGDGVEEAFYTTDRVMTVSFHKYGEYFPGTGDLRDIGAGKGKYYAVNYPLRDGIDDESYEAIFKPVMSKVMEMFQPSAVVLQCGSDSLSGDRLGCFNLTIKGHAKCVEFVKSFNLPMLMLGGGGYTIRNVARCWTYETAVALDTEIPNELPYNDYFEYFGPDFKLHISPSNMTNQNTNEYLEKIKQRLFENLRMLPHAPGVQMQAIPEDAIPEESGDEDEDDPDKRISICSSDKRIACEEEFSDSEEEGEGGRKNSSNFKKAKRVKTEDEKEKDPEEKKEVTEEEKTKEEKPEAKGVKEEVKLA
Method: Figure 3 Initial degradation screening of HDAC1 and 6 by DCAF11‐recruiting PROTACs by Simple Western™ immunoassay analysis of MM.1S cell lysates. MM.1S cells were treated with the indicated compound (10 μM) or vehicle (DMSO) for 24 h. […] Bottom: Representative images from a total of n=3 biological replicates, labeled with spacer type; w/o: without spacer.
2. Biological Experiments
No unexpected or unusually high safety hazards were encountered.
The human multiple myeloma cell line MM.1S (CRL-2974) was obtained from American Type Culture Collection (ATCC, Manassas, VA, USA). The semi-adherent cells were cultivated in RPMI 1640 medium (Catalog#21875-034, Gibco, ThermoFisher Scientific Inc., Waltham, MA, USA) supplemented with 10% FBS (PAN Biotech GmbH; Aidenbach, Germany), 100 IU/mL penicil lin, 0.1 mg/mL streptomycin (PAN Biotech GmbH) and 1 mM sodium pyruvate (ThermoFisher Scientific Inc.). […]
(PAN Biotech GmbH). All cells were cultured at 37 °C in a 5% CO2 atmosphere. Incubation times, as part of assay protocols, were performed under these conditions as well. The semi-adherent MM.1S were detached mechanically by using a cell scraper and the adhered […] were trypsinased by trypsin/EDTA (0.05%/0.02% in DPBS, PAN Biotech GmbH) whereas the U-87MG were detached by […]
2.2. Simple Western™ Immunoassay
For the cell lysates, MM.1S (0.5 × 10^6 cells/mL) or U-87MG (0.18 × 10^6 cells/mL) cells were seeded and incubated with the indicated concentration of compound or vehicle (DMSO) for the given time. The adherent cells were cultured for 24 h under cell culture conditions for attachment before treatment. Cell lysis was performed with Cell Extraction Buffer (10 mM Tris, pH 7.4, 100 mM NaCl, 1 mM EDTA, […]
SDS, 0.5% deoxycholate; Catalog# FNN0011, Thermo Fisher Scientific Inc., Waltham, MA, USA) with addition of Halt Protease Inhibitor Cocktail (100×) (Catalog# 78429, Life Technologies GmbH, Carlsbad, CA, USA) and phenylmethanesulfonyl fluoride (Catalog# 10837091001, Sigma-Aldrich, St.
Louis, MO, USA) according to manufacturer´s instructions. Protein content was determined by Pierce™ BCA Protein Assay Kit (Catalog# 23225, Thermo Fisher Scientific Inc.) according to manufacturer´s guidelines. Cell lysates were diluted to a final concentration of 1 mg/mL and denatured according to manufacturer’s guidelines. Anti-HDAC1 (Catalog# 5356S, Cell Signaling Technology, Denver, MA, USA), anti-HDAC6 (Catalog#7558S, Cell Signaling Technology) and anti-GAPDH (Catalog# 2118S, […]
Fluorescence Separation 8x25 Capillary Cartridges (Catalog# SM-FL004-1, Protein Simple, Bio-Techne, Minneapolis, MN, USA) were used for separation and the Anti-Mouse Detection Module (Catalog# DM-002, Protein Simple) was used for detection with addition of 20x Anti-Rabbit HRP […]
Conjugate (Catalog# 043-426, Protein Simple) according to manufacturer´s instructions. The assay was performed with the Jess Simple Western System (catalog# 004-650, Protein Simple), according to manufacturer´s settings. Evaluation and quantification was performed with the compass software (6.2.0, Protein Simple). GraphPad Prism (GraphPad Software, San Diego, CA, USA) was used for normalization, statistical analysis and bar graph creation. Significance testing was performed with a one-way analysis of variance (ANOVA). […]
of each mean compared to a reference mean value. […]
AMC (Catalog# 233691-67-3, BLD pharma) was prepared with and without IGEPAL CA-630 (0.5%, Catalog# J61055, Alfa Aesar). 10 µL of the substrate solution was added and incubated for 3 h under cell culture conditions. The reaction was stopped with 100 µL of stop solution (50 mM Tris-HCl, […]
Trypsin) and incubated for 1.5 h under cell culture conditions. The fluorescence signal was measured by a FLUOstar OPTIMA microplate reader (BMG labtech, Ortenburg, Germany) at excitation of λ = 355 nm and emission of λ = 460 nm. All Compounds were tested in two independent experiments in duplicates and IC50 was determined by nonlinear regression with GraphPad Prim.

[4] = system: MDA-MB-231 cells; assay: MTT cell viability assay; assay type: cell-based, human; settings: 72 h, n.e.: no effect (≤25 % effect up to 50 μM); for EC50: Homo sapiens, MDA-MB-231
Method: as §1, §2, §3

EC50 [1] | EC50 [2] | EC50 MDA-MB-231 [4] | EC50 MDA-MB-231 ([4]; listed as 1j‐nc) | reduction of HDAC1 levels [3] | time dependent degradation of HDAC1 ([3]; after 6 h) | EC50 [4] | SMILES | effect on HDAC1 protein levels ([3]; 14 h) | antiproliferative activity reduced compared to vorinostat by a factor [1]
8.6 ± 1.5 µM | 43 ± 18 µM | n.e. | no activity |  |  |  | O=CN(CCCCCCCCCCCC(=O)Nc1ccc(C(=O)NCCCCCCC(=O)NO)cc1)C(C(=O)NCc1ccccc1)c1ccc(Cl)c(Cl)c1 (stereo not shown) [Compound 1j-nc] | not able to affect the protein levels of HDAC1 and 6 | 
2.8 ± 0.1 µM | 30 ± 5 µM |  |  | 71% | significant degradation | 28 ± 10 µM | O=C(CCCCCCNC(=O)c1ccc(NC(=O)CCCCCCCCCCCN(C(=O)CCl)C(C(=O)NCc2ccccc2)c2ccc(Cl)c(Cl)c2)cc1)NO (stereo not shown) [Compound 1j] |  | 3 – 6
1.5 ± 0.1 µM | 12 ± 3 µM |  |  | 55% |  | 8.8 ± 3.2 µM | O=C(CCCCCCNC(=O)c1ccc(N(C(=O)CCl)C(C(=O)NCc2ccccc2)c2ccc(Cl)c(Cl)c2)cc1)NO (stereo not shown) [Compound 2] |  | 3 – 6
